# Source: patent publication US20260256925A1, “INDAZOLE DERIVATIVES AS ESTROGEN RECEPTOR DEGRADERS” (REGENTS OF THE UNIVERSITY OF MICHIGAN, priority 2022, published 2026)
# Columns and labels:
# ER = target: T1, ER (Homo sapiens, UniProt P03372); test: In-cell western blot analysis, relative ER percentage (compounds B1-B126); format: cell-based; conditions: ER degradation, 16 hours, read-out: ICW DC50
# T1 construct: endogenous in cells; probably T47D or MCF-7
# T1 sequence (P03372 1-595): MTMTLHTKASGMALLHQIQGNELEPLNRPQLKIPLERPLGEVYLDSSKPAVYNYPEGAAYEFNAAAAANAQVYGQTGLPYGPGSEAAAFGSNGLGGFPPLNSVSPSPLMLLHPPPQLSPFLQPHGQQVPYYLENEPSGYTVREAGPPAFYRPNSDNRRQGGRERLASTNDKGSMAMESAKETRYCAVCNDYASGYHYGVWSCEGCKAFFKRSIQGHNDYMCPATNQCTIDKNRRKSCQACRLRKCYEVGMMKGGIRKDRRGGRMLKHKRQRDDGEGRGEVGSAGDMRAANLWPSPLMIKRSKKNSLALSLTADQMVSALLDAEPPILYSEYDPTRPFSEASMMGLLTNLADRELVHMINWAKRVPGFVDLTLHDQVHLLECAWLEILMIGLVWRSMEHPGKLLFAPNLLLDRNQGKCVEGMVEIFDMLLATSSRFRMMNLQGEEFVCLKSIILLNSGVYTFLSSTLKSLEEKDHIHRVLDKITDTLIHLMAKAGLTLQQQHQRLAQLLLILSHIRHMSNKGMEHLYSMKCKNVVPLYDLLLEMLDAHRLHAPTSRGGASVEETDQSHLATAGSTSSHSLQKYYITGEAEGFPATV
# Method in brief: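 Cells seeded at 40,000 or 10,000 per well overnight were treated with compound (final 0.5% DMSO) for 16 hours, then fixed with formaldehyde. ER was detected with primary antibodies and anti-rabbit-680/anti-mouse-800 secondaries on a CLX reader. Signal is expressed relative to untreated and DMSO wells set as 100%.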
# [1] = Cell growth assay, WST-8 (compounds B1-B126); format: cell-based; conditions: 96 h; T47D cell line, WST-8, 4 days; read-out: Cell growth inhibition in T47D cell line IC50
# Method in brief: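 Cells seeded at 1500/well overnight, treated one day later with compound doses for 4 days, then 10% WST-8 added for 2.5 h at 37° C in CO2. Absorbance at 450 nm, expressed relative to vehicle control over three independent repeats.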
compound,measurement,setting,value
"C[C@@H]1Cc2c(ccc3[nH]ncc23)[C@@H](c2ccc(N3CCC4(CC3)CC(CN3CCN5c6ccc7c(c6OC[C@H]5C3)CN(C3CCC(=O)NC3=O)C7=O)CO4)cn2)N1CC(F)(F)F (stereo partly drawn) [Compound B91, 3-((5aR)-7-((8-(6-((6S,8R)-8-methyl-7-(2,2,2-trifluoroethyl)-6,7,8,9-tetrahydro-3H-pyrazolo[4,3-f]isoquinolin-6-yl)pyridin-3-yl)-1-oxa-8-azaspiro[4.5]decan-3-yl)methyl)-1-oxo-1,3,5,5a,6,7,8,9-octahydro-2H-pyrazino[1′,2′:4,5][1,4]oxazino[2,3-e]isoindol-2-yl)piperidine-2,6-dione]",DC50,ER,< 10 nM
same,IC50,[1],1 to 10 nM
"C[C@@H]1Cc2c(ccc3[nH]ncc23)[C@@H](c2ccc(N3CCC4(CCN(CC(=O)N5Cc6cc7c(cc6C5)C(=O)N(C5CCC(=O)NC5=O)C7=O)CC4)CC3)cn2)N1CC(F)(F)F (stereo partly drawn) [Compound B48, 2-(2,6-dioxopiperidin-3-yl)-6-(2-(9-(6-((6S,8R)-8-methyl-7-(2,2,2-trifluoroethyl)-6,7,8,9-tetrahydro-3H-pyrazolo[4,3-f]isoquinolin-6-yl)pyridin-3-yl)-3,9-diazaspiro[5.5]undecan-3-yl)acetyl)-6,7-dihydropyrrolo[3,4-f]isoindole-1,3(2H,5H)-dione]",DC50,ER,> 100 nM
same,IC50,[1],> 10 nM
"C[C@@H]1Cc2c(ccc3[nH]ncc23)[C@@H](c2ccc(N3CCC4(CC3)CC(CN3CCN5c6cc7c(cc6OC[C@@H]5C3)C(=O)N(C3CCC(=O)NC3=O)C7)C4)cn2)N1CC(F)(F)F (stereo partly drawn) [Compound B77, 3-((S)-3-((7-(6-((6S,8R)-8-methyl-7-(2,2,2-trifluoroethyl)-6,7,8,9-tetrahydro-3H-pyrazolo[4,3-f]isoquinolin-6-yl)pyridin-3-yl)-7-azaspiro[3.5]nonan-2-yl)methyl)-8-oxo-1,2,3,4,4a,5,8,10-octahydro-9H-pyrazino[1′,2′:4,5][1,4]oxazino[2,3-f]isoindol-9-yl)piperidine-2,6-dione]",DC50,ER,10 to 100 nM
same,IC50,[1],1 to 10 nM
"C[C@@H]1Cc2c(ccc3[nH]ncc23)[C@@H](c2c(F)cc(N3CCC(CN4CCN5c6c(ccc7c6CN(C6CCC(=O)NC6=O)C7=O)OC[C@@H]5C4)CC3)cc2F)N1CC(F)F (stereo partly drawn) [Compound B99, 3-((S)-9-((1-(4-((6S,8R)-7-(2,2-difluoroethyl)-8-methyl-6,7,8,9-tetrahydro-3H-pyrazolo[4,3-f]isoquinolin-6-yl)-3,5-difluorophenyl)piperidin-4-yl)methyl)-3-oxo-1,3,7,7a,8,9,10,11-octahydro-2H-pyrazino[1′,2′:4,5][1,4]oxazino[3,2-e]isoindol-2-yl)piperidine-2,6-dione]",DC50,ER,10 to 100 nM
same,IC50,[1],> 10 nM
C[C@@H]1Cc2c(ccc3[nH]ncc23)[C@@H](c2c(F)cc(NC3CN(CC(=O)N4CCN5c6cc7c(cc6OC[C@@H]5C4)C(=O)N(C4CCC(=O)NC4=O)C7)C3)cc2F)N1CC(F)F (stereo partly drawn) [Compound B27],DC50,ER,10 to 100 nM
same,IC50,[1],< 1 nM
"C[C@@H]1Cc2c(ccc3[nH]ncc23)[C@@H](c2ccc(N3CCC4(CC3)CN(C(=O)CN3CCC5(CC3)COc3c5ccc5c3CN(C3CCC(=O)NC3=O)C5=O)C4)cn2)N1CC(F)(F)F (stereo partly drawn) [Compound B78, 3-(1′-(2-(7-(6-((6S,8R)-8-methyl-7-(2,2,2-trifluoroethyl)-6,7,8,9-tetrahydro-3H-pyrazolo[4,3-f]isoquinolin-6-yl)pyridin-3-yl)-2,7-diazaspiro[3.5]nonan-2-yl)-2-oxoethyl)-6-oxo-6,8-dihydro-2H,7H-spiro[furo[2,3-e]isoindole-3,4′-piperidin]-7-yl)piperidine-2,6-dione]",DC50,ER,< 10 nM
same,IC50,[1],< 1 nM
